Test [1] addresses T1, human LXR alpha (GST-LXRα-LBD) (Homo sapiens, UniProt Q13133).
T1 construct: human LXR alpha (aa 164 to 447); made in house; host or cells: E. coli BL21 (pLysS)
T1 sequence (Q13133 164-447): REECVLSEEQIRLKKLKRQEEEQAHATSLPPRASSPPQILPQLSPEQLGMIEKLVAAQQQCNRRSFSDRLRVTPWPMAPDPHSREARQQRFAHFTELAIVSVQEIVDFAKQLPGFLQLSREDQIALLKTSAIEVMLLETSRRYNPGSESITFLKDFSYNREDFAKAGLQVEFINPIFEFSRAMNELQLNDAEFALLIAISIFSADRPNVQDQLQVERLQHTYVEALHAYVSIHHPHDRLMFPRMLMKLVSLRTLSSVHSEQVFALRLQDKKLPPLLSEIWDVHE
Description: Radioligand binding assay (SPA), LXR alpha. To be noted: GST-LXRα-LBD on SPA beads, read-out: LXRalpha Binding IC50. How it is done: The following tests were carried out in order to determine the activity of the compounds of the present invention. Background information on the performed assays can be found in: Nichols J S et al. “Development of a scintillation proximity assay for peroxisome proliferator-activated receptor gamma ligand binding domain”, Anal Biochem. 1998, 257: 112-119.
Mammalian expression vectors were constructed to express full-length human LXR alpha and LXR beta. Bacterial expression vectors were constructed to produce glutathione-s-transferase (GST) fused to the ligand binding domains (LBD) of human LXR alpha (aa 164 to 447) and human LXR beta (aa 155 to 460). To accomplish this, the portions of the sequences encoding the LBDs were amplified from full-length clones by PCR and then subcloned into the plasmid vectors. Final clones were verified by DNA sequence analysis (Willy et al., Genes Dev. 1995, 9:1033-45; Song et al., Proc Natl Acad Sci USA. 1994, 91:10809-13).
Induction, expression, and purification of GST-LBD fusion proteins were performed in E. coli strain BL21 (pLysS) cells by standard methods (Ref: Current Protocols in Molecular Biology, Wiley Press, edited by Ausubel et al).
LXR alpha and LXR beta receptor binding were assayed in buffer consisting of 50 mM HEPES, pH 7.4, 10 mM NaCl, 5 mM MgCl2. For each 96-well reaction, 500 ng of GST-LXRα-LBD or 700 ng of GST-LXR beta-LBD fusion proteins were bound to 80 μg or 40 μg SPA beads (Pharmacia Amersham) respectively, in a final volume of 50 μl by shaking. The resulting slurry was incubated for 1 h at RT and centrifuged for 2 min at 1300×g. The supernatant containing unbound protein was removed, and the semi-dry pellet containing the receptor-coated beads was re-suspended in 50 μl of buffer. […] All binding assays were performed in 96-well plates and the amount of bound ligand was measured on a Packard TopCount using OptiPlates (Packard). Dose response curves were measured within a range of concentration from 10^−10 M to 10^−4 M.

Test [2] addresses T2, human LXR beta (GST-LXR beta-LBD) (Homo sapiens, UniProt P55055).
T2 construct: human LXR beta (aa 155 to 460); made in house; host or cells: E. coli BL21 (pLysS)
T2 sequence (P55055 155-460): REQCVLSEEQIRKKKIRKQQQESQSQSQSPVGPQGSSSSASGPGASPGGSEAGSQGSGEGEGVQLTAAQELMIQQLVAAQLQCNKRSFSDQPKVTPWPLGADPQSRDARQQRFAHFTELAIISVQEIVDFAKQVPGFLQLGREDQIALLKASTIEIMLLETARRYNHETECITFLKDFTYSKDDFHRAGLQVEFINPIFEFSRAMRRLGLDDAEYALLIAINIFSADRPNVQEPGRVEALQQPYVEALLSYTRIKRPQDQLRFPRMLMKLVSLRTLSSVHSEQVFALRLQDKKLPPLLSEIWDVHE
In words: Radioligand binding assay (SPA), LXR beta. To be noted: GST-LXR beta-LBD on SPA beads, read-out: LXRbeta Binding IC50. How it is done: The following tests were carried out in order to determine the activity of the compounds of the present invention.
Mammalian expression vectors were constructed to express full-length human LXR alpha and LXR beta. […] To accomplish this, the portions of the sequences encoding the LBDs were amplified from full-length clones by PCR and then subcloned into the plasmid vectors.
LXR alpha and LXR beta receptor binding were assayed in buffer consisting of 50 mM HEPES, pH 7.4, 10 mM NaCl, 5 mM MgCl2. […] The resulting slurry was incubated for 1 h at RT and centrifuged for 2 min at 1300×g. The supernatant containing unbound protein was removed, and the semi-dry pellet containing the receptor-coated beads was re-suspended in 50 μl of buffer. Radioligand (eg. 100,000 dpm of (N-(2,2,2-trifluoroethyl)-N-[4-(2,2,2-trifluoro-1-hydroxy-1-trifluoromethylethyl)-phenyl]-benzenesulfonamide)) was added, and the reaction incubated at RT for 1 h in the presence of test compounds, and then scintillation proximity counting was performed. All binding assays were performed in 96-well plates and the amount of bound ligand was measured on a Packard TopCount using OptiPlates (Packard). Dose response curves were measured within a range of concentration from 10^−10 M to 10^−4 M.

The text below walks through data of patent publication US7897815B2, “Hexafluoroisopropanol derivatives” (Hoffmann-La Roche Inc., priority 2004, dated 2011).

Each structure is given as a SMILES string.

For orientation: IC50 means the midpoint of a concentration-inhibition curve. Consider `CCN(Cc1ccccc1)c1ccc(C(O)(C(F)(F)F)C(F)(F)F)cc1` [Example 1, 2-[4-(benzyl-ethyl-amino)-phenyl]-1,1,1,3,3,3-hexafluoro-propan-2-ol], for which, in test [1], the 50% inhibitory concentration (IC50) came out at 46 nM.

Turning to `CCN(Cc1cscn1)c1ccc(C(O)(C(F)(F)F)C(F)(F)F)cc1Cl` [Example 18, 2-{3-chloro-4-[ethyl-(thiazol-4-ylmethyl)-amino]-phenyl}-1,1,1,3,3,3-hexafluoro-propan-2-ol], the IC50 in test [1] stood at 17 nM.

Take `CCN(Cc1nc(-c2cccc(C(=O)OC)c2)oc1C)c1ccc(C(O)(C(F)(F)F)C(F)(F)F)cc1` [Example 30, 3-[4-({ethyl-[4-(2,2,2-trifluoro-1-hydroxy-1-trifluoromethyl-ethyl)-phenyl]-amino}-methyl)-5-methyl-oxazol-2-yl]-benzoic acid methyl ester]: the IC50 in test [1] is 2.7 nM; in test [2], 5.7 nM.
